Where two headings read alike, the source gives them in different places.
System: PC12 cells damaged by Aβ25-35
Assay: Protective effect on PC12 cells damaged by Aβ25-35 (MTT cell viability)
Type: cell-based, rat
Description: Protective effect of 6-hydroxy-5,8-dimethoxy-7H-azulene [1,2,3-i,j] isoquinolin-7-one on PC12 cells damaged by Aβ25-35: cell seeding in the 96-well plate was the same as above, and the experiment was divided into 5 groups, 4 holes in each group.

`COc1cc2ccnc3c2c(c1O)-c1c-3cccc(OC)c1=O` [6-hydroxy-5,8-dimethoxy-7H-azulene [1,2,3-i,j] isoquinolin-7-one] gave a viability at 0.5 µg/mL (Rattus norvegicus, PC-12, 0.5 ug·mL^-1 sample, 30 μmol/L Aβ25-35, 24 h, MTT, x ± s, n = 4) of 85.8 ± 1.6%, a viability at 1 µg/mL (Rattus norvegicus, PC-12, 1.0 ug·mL^-1 sample, 30 μmol/L Aβ25-35, 24 h, MTT, x ± s, n = 4, read-out: cell viability (%)) of 103 ± 1.8% and a viability at 5 µg/mL (Rattus norvegicus, PC-12, 5.0 ug·mL^-1 sample, 30 μmol/L Aβ25-35, 24 h, MTT, x ± s, n = 4) of 77.4 ± 3.8%. The viability at 1 µg/mL (Rattus norvegicus, PC-12, concentration of 1.0 μg·mL^-1, 30 μmol/L Aβ25-35, read-out: viability of PC12 damaged cells) was over 95% and the “cell viability compared to model group” value (three different concentrations (0.5, 1.0, 5.0 μg·mL^-1), P<0.01 vs model group) was “significantly increased cell viability”.
